Where only a bound is given, the exact number is not on record here.

Holding throughout (type): cell-based
Test [1] deals with bacteria from freshly-collected stimulated whole saliva (biofilm). As to the kind of experiment: Mixed culture saliva biofilm on saliva-coated hydroxyapatite discs (medium pH and OD 600 nm). As for the experimental part: A mixed culture system that utilizes the bacteria from freshly-collected stimulated whole saliva was used. Saliva cell pellets were used to inoculate saliva-coated hydroxyapatite (S-HA) discs. The discs were placed in 24-well cell culture plates and incubated for up to 3 days. Biofilms were exposed to actives on days 2 and 3 (starting at 18 hours), and quantified on day 4. The number of bacteria was determined by spectrophotometric absorbance or optical density (OD) at 600 nm. The five phases of the experiment were: pellicle formation; bacterial attachment; biofilm growth; exposure to actives; and bacterial enumeration. To form the pellicles, HA Discs were ultrasonically washed in deionized water and air-dried, then autoclaved. The discs were placed in a 24 well plate with 1 ml 50% sterile saliva (1 part sterile whole saliva: 1 part saliva buffer, filter sterilize after preparation) for 2 hours with slow agitation at room temperature. The saliva was suctioned and then the discs were transferred to fresh wells for bacterial attachment. The discs were inoculated with salivary bacteria by one of two methods: (1) incubation with saliva bacteria suspended in 50% saliva at a standard OD for 2-h at 37° C.; after the attachment phase the discs are transferred to supplemented saliva growth medium, or (2) direct addition of bacteria with media and incubation. To form the biofilms, the bacterial suspension was removed, and the discs were transferred to fresh wells. One ml of supplemented saliva medium was added and the plate was placed in the incubator for overnight incubation and for the duration of the experiment (up to 72 hours). A stock solution of 1% Magnolia Bark Extract in 60% ethanol was prepared. […] One ml quantities of active ingredients and controls were placed into fresh wells, and the discs transferred to these wells for 5 minutes. The chlorhexidine control exposure was one minute, two times a day to mimic the standard mouth-rinse procedure. The exposure to active ingredient was carried out at 8:00 AM, 12:00 and 4:00 PM. After the timed exposure, the solution was removed and the discs washed twice with PBS and then transferred to fresh medium. For some experiments, the medium used during the day was Tryptic Soy Broth (TSB) with a 50 μl 40% sterile sucrose solution added to each well (to give a 2% sucrose solution). The medium was not replaced after the mid-day exposure. After overnight incubation (day 2), discs were exposed to controls and actives. On day 3 the biofilms were again exposed to tests and controls. On day 4 the discs were removed from the medium, the medium pH was measured to obtain an indication of metabolic activity, and the discs were placed into tubes with 2.5 ml PBS, vortexed for 20s, and then placed into the ultrasonic bath for another 20 sec. The suspension was transferred into cuvettes and the bacterial cell density determined by OD measurements at 600 nm. To evaluate the effect of Magnolia Bark Extract in combination with the surface active agent, sodium lauryl sulfate, five active ingredient solutions were prepared using the procedures described above. […] Also, the MBE solutions were prepared to have a concentration of 500 ppm. Sodium lauryl sulfate was added to two of the Magnolia Bark Extract solutions to obtain SLS concentrations of 0.05% and 0.1% in the Magnolia Bark Extract solutions. The testing with Magnolia Bark Extract described above was repeated with the five solutions.

The next test has as its system S. mutans. As to the kind of experiment: MIC and fractional inhibitory index of MBE/surface active agent combinations on S. mutans. The note with it: 24 hours at 37° C. As for the experimental part: (§1) To evaluate the germ-kill efficacy and synergist effect when two or more germ-kill actives are combined, testing was performed to determine the ratio of MBE to surface active agent. […] These dilutions were inoculated with representative oral microorganisms, or incubated saliva, and incubated for 24 hours at 37° C. For each surface active agent, the lowest dilution that was not turbid was registered as the MIC.

In a further test the test system is incubated saliva. As to the kind of experiment: MIC of surface active agents and emulsifiers on incubated saliva. The conditions noted are these: for MIC (ppm): incubated saliva, 24 hours at 37° C.; for germ-kill efficacy: assessment in words of Table 9. As for the experimental part: as §1, with “agent. The germ-kill active and/or surface active agent was dissolved in ethanol or sterile water to give an initial concentration 0.1% to 1%.” for “agent.”, “MIC. The MBC was determined by transferring 10 microliter of liquid from non-turbid tubes to fresh growth media and incubated for 48 hrs.” for “MIC.”

Regarding `[H]/N=C(\N/C(=N/[H])NCCCCCCNC(=N)NC(=N)Nc1ccc(Cl)cc1)Nc1ccc(Cl)cc1` [CHX, chlorhexidine], the “% OD reduction” value in test [1] (OD 600 nm vs PBS control, CHX 0.12%, one minute, two times a day) was determined as 84%; in test [1] (SLS combination experiment, OD 600 nm, CHX 0.1% (1000 ppm)), 94%. Besides, the pH is 8.8 in test [1] (SLS combination experiment, CHX 0.1% (1000 ppm)) and 8.8 in test [1] (medium pH day 4, CHX 0.12%, exposure one minute, two times a day).
Take `N=C(NCCCCCCNC(=N)NC(=N)Nc1ccc(Cl)cc1)NC(=N)Nc1ccc(Cl)cc1.O=C(O)[C@H](O)[C@@H](O)[C@H](O)[C@H](O)CO.O=C(O)[C@H](O)[C@@H](O)[C@H](O)[C@H](O)CO` [Chlorhexidine gluconate, reference compound]: the MIC/ppm with S. mutans is reported as 2 ppm. In addition, in the test with incubated saliva, the “MIC (ppm)” value came to 2 ppm.
As to `CCCCCCCCCCCCOS(=O)(=O)[O-].[Na+]` [SLS, sodium lauryl sulfate], in test [1] (SLS combination experiment, OD 600 nm, 1000 ppm), the “% OD reduction” value stood at 61%. For the same compound, the pH in test [1] (SLS combination experiment, 1000 ppm) was determined as 5.7. In addition, in the test with incubated saliva, the germ-kill efficacy entry is given as “good germ-kill surface active agents”.
For `CCCCCCCCCCCC(=O)OCCOCCOCCOCCOCCOCCOCCOCCOCCOCCOCCOCCOCCOCCOCCOCCOCCOCCOCCOCCOCC(OCCOCCOCCOCCOCCOCCOCCOCCOCCOCCOCCOCCOCCOCCOCCOCCOCCOCCOCCOCCO)C1OCC(OCCOCCOCCOCCOCCOCCOCCOCCOCCOCCOCCOCCOCCOCCOCCOCCOCCOCCOCCOCCO)C1OCCOCCOCCOCCOCCOCCOCCOCCOCCOCCOCCOCCOCCOCCOCCOCCOCCOCCOCCOCCO` (stereo not shown) [Tween 20, Polysorbate 20], the germ-kill efficacy entry in the test on incubated saliva is recorded as “weak or non germ-kill actives”.
Still for that read-out and setting: in the case of Cocamidopropyl Betaine it was “good germ-kill surface active agents”.
Regarding Sodium Brasslate, in the test with incubated saliva, the germ-kill efficacy result is “moderate germ-kill efficacy” and the “MIC (ppm)” value is recorded as 500 ppm.
Regarding Sodium Stearoyl Lactylate, in the test with incubated saliva, the germ-kill efficacy result is “weak or non germ-kill actives” and the “MIC (ppm)” value is >3000 ppm.
In the same order, the values of Sucrose Distearate are “weak or non germ-kill actives” and >500 ppm.
On the same counts, the results for Sucrose Stearate are “weak or non germ-kill actives” and >500 ppm.

(Values after US7632525B2, “Breath freshening and oral cleansing product with magnolia bark extract in combination with surface active agents” (Wm. Wrigley Jr. Company, priority 2002, dated 2009).)
